From ChEMBL document CHEMBL1140974, “Synthesis and antimalarial activity of semicarbazone and thiosemicarbazone derivatives” (Eur J Med Chem, 2008)
The source made the active and inactive calls. No cut-off for these calls is given here.

Columns and labels:
Plasmodium falciparum [1] = assay: Antimalarial activity against chloroquine-resistant Plasmodium falciparum W2 in human erythrocytes at 20 ug/mL by [3H]hypoxanthine uptake; type: functional
PBMC [2] = assay: Antiproliferative activity against PHA-stimulated human PBMC at 20 ug/mL after 72 hrs by MTT assay relative to control; type: cell-based
PBMC [3] = assay: Antiproliferative activity against PHA-stimulated human PBMC after 72 hrs by MTT assay; type: cell-based
Plasmodium falciparum [4] = assay: Antimalarial activity against chloroquine-resistant Plasmodium falciparum W2 in human erythrocytes by [3H]hypoxanthine uptake; type: functional, organism-based
Plasmodium berghei [5] = assay: Antiplasmodial activity after 5 days as reduced parasitaemia in Plasmodium berghei NK65 infected BALB/c mice (Mus musculus) at 5 mg/kg/day for 4 days; type: functional; set-up: scale not given: the % may be the effect or the level left
Plasmodium berghei [6] = assay: Antiplasmodial activity as reduced parasitaemia after 5 day sin Plasmodium berghei NK65 infected BALB/c mice (Mus musculus) at 10 mg/kg/day over 4 days; type: functional; set-up: scale not given: the % may be the effect or the level left
Plasmodium berghei [7] = assay: Antiplasmodial activity as reduced parasitaemia after 5 days in Plasmodium berghei NK65 infected BALB/c mice (Mus musculus) at 20 mg/kg/day over 4 days; type: functional; set-up: scale not given: the % may be the effect or the level left
Plasmodium berghei [8] = assay: Antiplasmodial activity as reduced parasitaemia after 5 days in Plasmodium berghei NK65 infected BALB/c mice (Mus musculus) at 15 mg/kg/day over 4 days; type: functional; set-up: scale not given: the % may be the effect or the level left
Plasmodium berghei [9] = assay: Antiplasmodial activity as reduced parasitaemia after 7 days in Plasmodium berghei NK65 infected BALB/c mice (Mus musculus) at 5 mg/kg/day over 4 days; type: functional; set-up: scale not given: the % may be the effect or the level left
Plasmodium berghei [10] = assay: Antiplasmodial activity as reduced parasitaemia after 7 days in Plasmodium berghei NK65 infected BALB/c mice (Mus musculus) at 10 mg/kg/day over 4 days; type: functional; set-up: scale not given: the % may be the effect or the level left
Plasmodium berghei [11] = assay: Antiplasmodial activity as reduced parasitaemia after 7 days in Plasmodium berghei NK65 infected BALB/c mice (Mus musculus) at 20 mg/kg/day over 4 days; type: functional; set-up: scale not given: the % may be the effect or the level left
Plasmodium berghei [12] = assay: Antiplasmodial activity as reduced parasitaemia after 7 days in Plasmodium berghei NK65 infected BALB/c mice (Mus musculus) at 15 mg/kg/day over 4 days; type: functional; set-up: scale not given: the % may be the effect or the level left

Row | Structure (SMILES) | Activity (Plasmodium falciparum [1]) | Activity (PBMC [2]) [%] | inhibition at 20 µg/mL (Plasmodium falciparum [1]) [%] | further results
1 | CN(C)c1ccc(/C=N/NC(N)=O)cc1 | inactive | 84 | – | –
2 | CCN(CC)CCCC(C)Nc1ccnc2cc(Cl)ccc12 (stereo not drawn) [CHLOROQUINE] | – | – | – | IC50 (PBMC [3]): 5.1 µM
3 | CC(C)=CCC/C(C)=N\NC(N)=O | inactive | 107 | – | –
4 | CC/C(=N/NC(N)=S)C(C)CC=C(C)C (stereo not drawn) | – | 60 | 99 | IC50 (PBMC [3]): 31.3 µM; IC50 (Plasmodium falciparum [4]): 9.2 µM
5 | COc1ccc(/C=N/NC(N)=O)cc1 | – | 141 | 38 | –
6 | CC/C(=N/NC(N)=O)C(C)CC=C(C)C (stereo not drawn) | inactive | 0 | – | –
7 | COc1cc(/C=N/NC(N)=O)ccc1O | inactive | 116 | – | –
8 | CC(C)=CCC/C(C)=N\NC(N)=S | – | 98 | 100 | IC50 (PBMC [3]): 35.2 µM; IC50 (Plasmodium falciparum [4]): 12.6 µM
9 | COc1cc(/C=N/NC(N)=S)cc(OC)c1OC | inactive | 78 | – | –
10 | CC1(C)C2CC=C(/C=N/NC(N)=O)C1C2 (stereo not drawn) | inactive | 110 | – | –
11 | COc1ccc(/C=N/NC(N)=O)cc1OC | – | 80 | 32 | –
12 | COc1ccc(/C=N/NC(N)=S)cc1 | inactive | 90 | – | –
13 | CC1(C)C2CC=C(/C=N/NC(N)=S)C1C2 (stereo not drawn) | – | 76 | 95 | IC50 (PBMC [3]): 73.5 µM; IC50 (Plasmodium falciparum [4]): 7.2 µM; Activity (Plasmodium berghei [5]): 0%; Activity (Plasmodium berghei [6]): 36%; Activity (Plasmodium berghei [7]): 77.5%; Activity (Plasmodium berghei [8]): 93%; Activity (Plasmodium berghei [9]): 8%; Activity (Plasmodium berghei [10]): 32%; Activity (Plasmodium berghei [11]): 61%; Activity (Plasmodium berghei [12]): 94.5%
14 | CCCC/C(CC)=N\NC(N)=O | inactive | 89 | – | –
15 | COc1cc(/C=N/NC(N)=O)cc(OC)c1OC | inactive | 107 | – | –
